# Measurements as given in US12491170B2, “Stable treprostinil prodrugs” (United Therapeutics Corporation, priority 2020, dated 2025).
# Assays:
# [1] = target: prostaglandin E2 (PGE2) receptor 2 (EP2) (Homo sapiens, UniProt P43116); test: EP2 receptor cAMP agonist assay (HEK293T cells); assay type: cell-based; parameters: key to EC50 Fold Different from Treprostinil, EP2 Receptor: NC = too inactive to realistically calculate; conditions: for Activity at the EP2 receptor compared to treprostinil: summary of findings
# Method: (§1) Cyclic AMP assay kit: Multiscreen™ TR-FRET cAMP 1.0 No Wash Assay Kit (Multispan, Inc.)
# (§2) Cells were thawed from frozen cells and resuspended in assay buffer at desired concentrations. cAMP or Calcium assays were performed according to the manufacturer's protocol using Multiscreen™ TR-FRET cAMP 1.0 No Wash Assay Kit or Multiscreen™ Calcium 1.0 No Wash Kit.
# (§3) Gas Cyclic AMP (cAMP) Assay: In agonist mode testing, cells were seeded in a 384-well plate at an appropriate density and then were treated with compounds and incubated at 37° C. for 20 minutes. The reaction was terminated by […] trFluor™ Eu-labeled cAMP and trFluor™ 650-labeled anti-cAMP antibody in lysis buffer. […] All testing wells contained 0.1% DMSO in the final concentrations.
# (§4) Data in graphs are represented in Mean±SD. Dose-dependent responses were fitted with sigmoidal dose-response curves allowing variable slopes using GraphPad Prism version 6 (Graphpad Prism).
# (§5) These studies used cell lines overexpressing either human IP, EP2 or DP1, or EP1 receptors, and following incubation with varying concentrations of compounds, cAMP levels were measured using Fluorescence Resonance Energy Transfer (FRET).
# [2] = target: T1, prostaglandin D2 (PGD2) receptor 1 (DP1) (Homo sapiens, UniProt Q13258); test: DP1 receptor cAMP agonist assay (HEK293T cells); assay type: cell-based; conditions: for DP1 Relative to Tre: relative to treprostinil EC50 values, * partial agonists or ambiguous dose-response curves
# T1 sequence (Q13258 1-359): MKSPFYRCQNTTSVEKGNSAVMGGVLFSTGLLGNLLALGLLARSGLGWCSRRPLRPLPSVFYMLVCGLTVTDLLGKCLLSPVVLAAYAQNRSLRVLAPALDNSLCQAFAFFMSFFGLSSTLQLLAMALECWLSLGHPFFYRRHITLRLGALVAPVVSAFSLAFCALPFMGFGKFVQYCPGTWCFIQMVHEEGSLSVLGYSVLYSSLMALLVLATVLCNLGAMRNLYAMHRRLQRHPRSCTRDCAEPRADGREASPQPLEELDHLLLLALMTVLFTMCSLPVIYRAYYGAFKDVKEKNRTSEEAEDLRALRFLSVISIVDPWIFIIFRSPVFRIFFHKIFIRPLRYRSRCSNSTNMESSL
# Method: as §1, §2, §3, §4, §5
# [3] = Stability in liver microsomes, rat; conditions: for CLint, calculated (in parentheses) / Half-life, calculated (in parentheses) / CLint / Half-life: microsomes; for AUC Mono (treprostinil formed) / CLint / Half-life: rat
# [4] = Stability in liver microsomes, human; conditions: for AUC / AUC Mono (treprostinil formed) / CLint / Half-life: human
# [5] = Hydrolysis of prodrugs to treprostinil at pH 6, 7, 8 and 40 C; assay type: physicochemical
# Text: Tables 24, 25 and 26 present data for hydrolysis of selected treprostinil prodrugs at pH 6, 7 and 8, respectively, and 40 C.
# [6] = Stability in cryopreserved hepatocytes, human; conditions: for CLint, calculated (in parentheses) / Half-life, calculated (in parentheses) / CLint / Half-life: hepatocytes; for AUC / Mono AUC (treprostinil formed) / CLint / Half-life: human
# [7] = Table 18, * partial agonists or odd dose-response curves
# Sequence of prostaglandin E2 (PGE2) receptor 2 (EP2) (P43116 whole entry): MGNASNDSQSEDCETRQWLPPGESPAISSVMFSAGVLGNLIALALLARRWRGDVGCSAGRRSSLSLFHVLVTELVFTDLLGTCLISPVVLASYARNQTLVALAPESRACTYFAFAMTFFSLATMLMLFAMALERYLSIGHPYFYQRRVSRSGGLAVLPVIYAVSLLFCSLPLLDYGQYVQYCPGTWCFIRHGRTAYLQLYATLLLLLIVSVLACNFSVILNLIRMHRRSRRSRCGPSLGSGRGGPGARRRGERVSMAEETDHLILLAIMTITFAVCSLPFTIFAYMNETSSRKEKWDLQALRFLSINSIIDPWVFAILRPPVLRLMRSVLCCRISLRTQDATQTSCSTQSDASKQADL
smiles,measurement,setting,value
"CCCCCC(CCC1C(OC(=O)CC)CC2Cc3c(cccc3OCC(=O)O)CC21)OC(=O)CC (centres unmarked) [Prodrug LXX, treprostinil dipropionate]","EC50 Fold Different from Treprostinil, EP2 Receptor",[1]; [7],NC
same,Activity at the EP2 receptor compared to treprostinil,[1],inactive
same,"EC50 Fold Different from Treprostinil, DP1 Receptor",[2]; [7],410x*
same,DP1 Relative to Tre,[2]; Table 22,410x
same,DP1 Relative to Tre,[2]; Table 23,410x
same,Activity at the DP1 receptor compared to treprostinil,[2]; summary of findings,several hundred-fold less active
same,Trep Concentration 0 min,[3],0.336 µM
same,Trep Concentration 10 min,[3],0.595 µM
same,Trep Concentration 20 min,[3],0.764 µM
same,Trep Concentration 30 min,[3],0.653 µM
same,Trep Concentration 60 min,[3],0.699 µM
same,Treprostinil Concentration 0 min,[3],0.336 µM
same,Treprostinil Concentration 15 min,[3],0.595 µM
same,Treprostinil Concentration 30 min,[3],0.764 µM
same,Treprostinil Concentration 60 min,[3],0.653 µM
same,Treprostinil Concentration 120 min,[3],0.699 µM
same,"CLint, calculated (in parentheses)",[3],0.250 mL/min/mg protein
same,"Half-life, calculated (in parentheses)",[3],5.53 min
same,AUC Mono (treprostinil formed),[3],38.8 µmol·min/L
same,CLint,[3],> 0.139 mL/min/mg protein
same,Half-life,[3],< 10 min
same,Trep Concentration 0 min,[4],1.18 µM
same,Trep Concentration 10 min,[4],0.903 µM
same,Trep Concentration 20 min,[4],0.602 µM
same,Trep Concentration 30 min,[4],0.538 µM
same,Trep Concentration 60 min,[4],0.381 µM
same,Treprostinil Concentration 0 min,[4],1.18 µM
same,Treprostinil Concentration 15 min,[4],0.903 µM
same,Treprostinil Concentration 30 min,[4],0.602 µM
same,Treprostinil Concentration 60 min,[4],0.538 µM
same,Treprostinil Concentration 120 min,[4],0.381 µM
same,AUC,[4],37.43 µmol·min/L
same,AUC Mono (treprostinil formed),[4],37.4 µmol·min/L
same,CLint,[4]; microsomes,>0.139 mL/min/mg protein
same,Half-life,[4]; microsomes,<10 min
same,"Hydrolysis to treprostinil, % Area, t = 1 week","[5]; pH 6, 40 C.",0.00 % Area
same,"Hydrolysis to treprostinil, % Area, t = 2 weeks","[5]; pH 6, 40 C.",0.00 % Area
same,"Hydrolysis to treprostinil, % Area, t = 3 weeks","[5]; pH 6, 40 C.",0.00 % Area
same,"Hydrolysis to treprostinil, % Area, t = 1 week","[5]; pH 7, 40 C.",0.00 % Area
same,"Hydrolysis to treprostinil, % Area, t = 2 weeks","[5]; pH 7, 40 C.",0.00 % Area
same,"Hydrolysis to treprostinil, % Area, t = 3 weeks","[5]; pH 7, 40 C.",0.00 % Area
same,"Hydrolysis to treprostinil, % Area, t = 1 week","[5]; pH 8, 40 C.",0.00 % Area
same,"Hydrolysis to treprostinil, % Area, t = 2 weeks","[5]; pH 8, 40 C.",0.00 % Area
same,"Hydrolysis to treprostinil, % Area, t = 3 weeks","[5]; pH 8, 40 C.",0.00 % Area
same,Trep Concentration (μM) 0 min,[6],0.00542 µM
same,Trep Concentration (μM) 15 min,[6],0.638 µM
same,Trep Concentration (μM) 30 min,[6],0.556 µM
same,Trep Concentration (μM) 60 min,[6],0.482 µM
same,Trep Concentration (μM) 120 min,[6],0.413 µM
same,Treprostinil Concentration 0 min,[6],0.00542 µM
same,Treprostinil Concentration 120 min,[6],0.413 µM
same,"CLint, calculated (in parentheses)",[6],0.185 mL/min/mg protein
same,"Half-life, calculated (in parentheses)",[6],2.50 min
same,AUC,[6],56.2 µmol·min/L
same,Mono AUC (treprostinil formed),[6],56.2 µmol·min/L
same,CLint,[6],> 0.0308 mL/min/mg protein
same,Half-life,[6],< 15 min
"CCCCCC(CCC1C(OC(=O)OC)CC2Cc3c(cccc3OCC(=O)O)CC21)OC(=O)OC (centres unmarked) [Prodrug LXXI, treprostinil dicarbonate]",Activity at the EP2 receptor compared to treprostinil,[1],inactive
same,DP1 Relative to Tre,[2]; Table 22,2181x*
same,DP1 Relative to Tre,[2]; Table 23,2181x*
same,"CLint, calculated (in parentheses)",[3],0.575 mL/min/mg protein
same,"Half-life, calculated (in parentheses)",[3],2.41 min
same,AUC Mono (treprostinil formed),[3],33.5 µmol·min/L
same,CLint,[3],> 0.139 mL/min/mg protein
same,Half-life,[3],< 10 min
same,AUC,[4],10.56 µmol·min/L
same,AUC Mono (treprostinil formed),[4],10.6 µmol·min/L
same,CLint,[4]; microsomes,> 0.139 mL/min/mg protein
same,Half-life,[4]; microsomes,< 10 min
same,"CLint, calculated (in parentheses)",[4]; microsomes,0.189 mL/min/mg protein
same,"Half-life, calculated (in parentheses)",[4]; microsomes,7.32 min
same,"Hydrolysis to treprostinil, % Area, t = 1 week","[5]; pH 6, 40 C.",0.00 % Area
same,"Hydrolysis to treprostinil, % Area, t = 2 weeks","[5]; pH 6, 40 C.",0.00 % Area
same,"Hydrolysis to treprostinil, % Area, t = 3 weeks","[5]; pH 6, 40 C.",0.00 % Area
same,"Hydrolysis to treprostinil, % Area, t = 1 week","[5]; pH 7, 40 C.",0.00 % Area
same,"Hydrolysis to treprostinil, % Area, t = 2 weeks","[5]; pH 7, 40 C.",0.00 % Area
same,"Hydrolysis to treprostinil, % Area, t = 3 weeks","[5]; pH 7, 40 C.",0.00 % Area
same,"Hydrolysis to treprostinil, % Area, t = 1 week","[5]; pH 8, 40 C.",0.00 % Area
same,"Hydrolysis to treprostinil, % Area, t = 2 weeks","[5]; pH 8, 40 C.",0.00 % Area
same,"Hydrolysis to treprostinil, % Area, t = 3 weeks","[5]; pH 8, 40 C.",0.38 % Area
same,"CLint, calculated (in parentheses)",[6],0.0516 mL/min/mg protein
same,"Half-life, calculated (in parentheses)",[6],8.96 min
same,AUC,[6],26.57 µmol·min/L
same,Mono AUC (treprostinil formed),[6],26.6 µmol·min/L
same,CLint,[6],> 0.0308 mL/min/mg protein
same,Half-life,[6],< 15 min
